The subject of data set [1] is PGC-1α (Gene Symbol: Ppargc1a). The data set can be described thus: Gene expression analysis (real-time PCR) in gastrocnemius muscle of muscle atrophy model: PGC-1α. Format: in vivo, rat. The method, then:
(§1) A gene expression analysis test using real-time PCR was conducted on the gastrocnemius muscle extracted in Testing Example 1 above. The tissue of the gastrocnemius muscle extracted in Testing Example 1 above was fragmented, and total RNA was extracted using RNeasy® Lipid Tissue Mini Kit (available from Qiagen). The obtained total RNA was quantified using a spectrophotometer, and the total RNA was prepared to be 71.4 ng/μL. Using 1000 ng of the total RNA as a template, a reverse transcription reaction was performed using SuperScript® VILO™ CDNA Synthesis Kit (available from Thermo Fisher Scientific). The reaction solution was 20 μL, and the operation was based on the manual attached to the above kit. […] Assay mixes corresponding to the genes to be analyzed were prepared for respective genes using corresponding Taqman® Gene Expression Assays (the assay ID for each gene is described previously). […] After the reaction was completed, the Ct value was calculated using analysis software (Fluidigm Real Time PCR Analysis 4.5.2, available from Fluidigm). The obtained Ct value of each gene was standardized with the Ct value of the internal standard gene GAPDH, and the relative value was calculated when the first group (control group) was set as the standard (1.00).
Background: Quantitative PCR measures a nucleic acid by following its amplification.

Data set [2] has as its system Atrogin-1 (Gene Symbol: Fbxo32). Put plainly: Gene expression analysis (real-time PCR) in gastrocnemius muscle of muscle atrophy model: Atrogin-1. It counts as in vivo, rat. The protocol: as §1
Data set [3] deals with Akt. The data set can be described thus: Kinase activation analysis in muscle atrophy model: Akt phosphorylation (Luminex). Format: in vivo, rat. The following applies: gastrocnemius muscle. The protocol:
(§2) For the gastrocnemius muscle extracted in Testing Example 1 above, the phosphorylation state of AMPK and Akt, which are kinases contributing to increase in muscle mass, was evaluated by Luminex measurement and ELISA measurement.
(§3) The tissue of the gastrocnemius muscle extracted in Testing Example 1 above was fragmented, and a tissue extract was collected. The total protein concentration was quantified and used for Luminex measurement and ELISA measurement described below so that the total protein amount was 10 μg per well.
For Akt, MILLIPLEX® MAP Phospho/Total Akt 2-Plex Magnetic Bead Kit 96-well Plate Assay (available from EMD Millipore, catalog number: 48-618MAG) was used to measure the total Akt amount (t-Akt) and the phosphorylated Akt (p-Akt, Ser473) all at once in one reaction system.
(§4) As an internal standard, GAPDH was measured using Total GAPDH Magnetic Bead MAPmate™ (available from EMD Millipore, catalog number: 46-667MAG), and the measured values of the above AMPK and Akt were standardized.

Data set [4] relates to MuRF-1 (Gene Symbol: Trim63). Put plainly: Gene expression analysis (real-time PCR) in gastrocnemius muscle of muscle atrophy model: MuRF-1. Format: in vivo, rat. The method, then: as §1
Data set [5] relates to AMPK. The data set can be described thus: Kinase activation analysis in muscle atrophy model: AMPK phosphorylation (ELISA). It counts as in vivo, rat. Particulars: gastrocnemius muscle. The protocol: as §2, §3
For AMPK, PathScan® Total AMPKα Sandwich ELISA Kit (available from Cell Signaling Technology, catalog number: 7961C) was used to measure the total AMPK (t-AMPK), and PathScan® Phospho-AMPKα (Thr172) ELISA Sandwich Kit (available from Cell Signaling Technology, catalog number: 7959C) was used to measure the Thr172 phosphorylated AMPK (p-AMPK).
as §4

For data set [6], the system named is IL-6 (Gene Symbol: Il6). The data set can be described thus: Gene expression analysis (real-time PCR) in gastrocnemius muscle of muscle atrophy model: IL-6. Format: in vivo, rat. The protocol:
as §1

Data set [7] has as its system GLUT4 (Gene Symbol: Slc2a4). The data set can be described thus: Gene expression analysis (real-time PCR) in gastrocnemius muscle of muscle atrophy model: GLUT4. Format: in vivo, rat. The protocol: as §1
Data set [8] has as its system rat muscle atrophy model. The data set can be described thus: Muscle atrophy preventing action test (hindlimb suspension). It counts as in vivo. The method, then: Using the compound (I) (Sample 1), the muscle atrophy preventing action on a rat muscle atrophy model was tested in the following manner. Eight-week-old male Crlj:WI rats (purchased from Charles River Laboratories Japan, Inc.) were reared in an maintained environment of controlled temperature: 20.0-26.0° C., controlled humidity: 40.0-70.0% RH, light and dark for 12 hours each, and ventilation frequency: 12 times/hour. During the rearing period, solid feed (CRF-1, available from Oriental Yeast Co., Ltd.) was placed in a feeder and consumed ad libitum. However, during the hindlimb suspension rearing period described below, the rats were allowed to consume the feed by scattering it on the floor. For drinking water, tap water was available ad libitum using a water bottle. After a 5-day quarantine period and a 2-day acclimatization period, the rats were grouped with 8 rats per group as listed in Table 1 by random sampling so that the average weight and variance of each group were approximately equal. The rats were put into a state in which the tails of the rats were attached to a rail on the ceiling with a rat tail suspension clip and the hindlimbs of the rats were off the floor (hindlimb suspension), and muscle atrophy was induced in this state by rearing the rats for 14 days after the grouping on the grouping day. During the period of rearing with suspended hindlimbs, the rats were able to move within the rearing cage using their forelimbs, and were able to freely consume water and feed. The compound (I) (Sample 1) was dissolved in water for injection and administered orally by force using a syringe to which a feeding needle was attached. The grouping day was taken as the first day (day 1 of administration), the administration was performed once a day for 14 days, and the day after the 14th day of administration (day 15 of administration) was the last day of the rearing period. On the last day of the hindlimb suspension rearing (day 15 of administration), blood was collected from the abdominal aorta using a heparin-Na treated vacuum blood collection tube and a winged intravenous needle under isoflurane anesthesia. After blood collection, the rats were euthanized by exsanguination from the abdominal aorta, and the right and left gastrocnemius and soleus muscles were extracted. The extracted gastrocnemius and soleus muscles were weighed separately on the right and left sides (the values in Table 2 are the total values).

The mark [9] stands for this setting: 125 mg/kg orally 14 days, standardized with GAPDH.
The mark [10] stands for this setting: administration group 125 mg/kg vs control group.

With `COc1cc(CCC(=O)O)ccc1O` [compound (I), 3-(4-hydroxy-3-methoxyphenyl) propionic acid], in data set [1] (setting [9]), the “PGC-1α (Ppargc1a) gene expression, relative value (control group = 1.00)” value stood at 1.28. Besides, in data set [1] (administration group 125 mg/kg), the “PGC-1α gene expression compared to control group (in words)” value is recorded as “tendency to increase”. The “Atrogin-1 (Fbxo32) gene expression, relative value (control group = 1.00)” value in data set [2] (setting [9]) was found to be 0.68. The “Atrogin-1 gene expression compared to control group (in words)” value in data set [2] (administration group 125 mg/kg) was “tendency to decrease”. The compound further gave a p-Akt/t-Akt in data set [3] (125 mg/kg orally 14 days, Ser473, standardized with GAPDH, control group 100.0) of 172.9. The “phosphorylated form of Akt compared to control group (in words)” value in data set [3] (administration group 125 mg/kg) was “tendency to increase”. For the same compound, the “MuRF-1 (Trim63) gene expression, relative value (control group = 1.00)” value in data set [4] (setting [9]) was 0.81. The “MuRF-1 gene expression compared to control group (in words)” value in data set [4] (administration group 125 mg/kg) is “tendency to decrease”. The p-AMPK/t-AMPK in data set [5] (125 mg/kg orally 14 days, Thr172, standardized with GAPDH, control group 100.0) is 120.8. Besides, the “phosphorylated form of AMPK compared to control group (in words)” value in data set [5] (administration group 125 mg/kg) is listed as “tendency to increase”. Further, in data set [6] (setting [9]), the “IL-6 (Il6) gene expression, relative value (control group = 1.00)” value is reported as 1.10. Besides, the “IL-6 gene expression compared to control group (in words)” value in data set [6] (administration group 125 mg/kg) is on record as “tendency to increase”. Besides, in data set [7] (setting [9]), the “GLUT4 (Slc2a4) gene expression, relative value (control group = 1.00)” value is 1.13. Also, the “GLUT4 gene expression compared to control group (in words)” value in data set [7] (administration group 125 mg/kg) was “tendency to increase”. For the same compound, in data set [8] (setting [10]), the “difference in body weight between groups (in words)” value is “no difference was observed”, the “weight of the gastrocnemius muscle compared to control group (in words)” value was “increased” and the “weight of the soleus muscle compared to control group (in words)” value is listed as “increased”. In data set [8] (administration of 125 mg/kg, rat muscle atrophy model), the “muscle mass (in words)” value is reported as “increased”. This compound showed a Gastrocnemius muscle (total of right and left) weight in data set [8] (hindlimb-suspended rats, 125 mg/kg orally once a day for 14 days, day 15, control 2.50) of 2.69 g. The “Soleus muscle (total of right and left) weight” value in data set [8] (hindlimb-suspended rats, 125 mg/kg orally once a day for 14 days, day 15, control 130.3) was 149.1 mg. Moreover, the Body weight in data set [8] (hindlimb-suspended rats, 125 mg/kg orally once a day for 14 days, day 15, control 310) is listed as 309 g.
